Literature values, collected in patent publication US20050282773A1, “Modified polysaccharides in combination with anti-cancer drugs for enhanced treatment of cancer” (Pro-Pharmaceuticals, Inc., priority 2004, published 2005).

Key:
L-1 sarcoma cells = details: in vivo
B16 melanoma cells = details: in vivo

Row | Molecule | liver metastasis of L-1 sarcoma cells (L-1 sarcoma cells) | metastasis of B16 melanoma cells (B16 melanoma cells)
1 | O=C[C@H](O)[C@@H](O)[C@@H](O)[C@H](O)CO [D-galactose] | inhibited | –
2 | CC(=O)N[C@H]1[C@H](O[C@H]2[C@@H](O)[C@@H](CO)O[C@@H](O[C@H]3[C@H](O)[C@@H](O)C(O)O[C@@H]3CO)[C@@H]2O)O[C@H](CO)[C@@H](O)[C@@H]1O[C@@H]1O[C@H](CO)[C@H](O)[C@H](O)[C@H]1O (stereo partly shown) [lacto-N-tetrose] | – | inhibit
3 | CO[C@H]1O[C@H](CO)[C@@H](O[C@@H]2O[C@H](CO)[C@H](O)[C@H](O)[C@H]2O)[C@H](O)[C@H]1O [methyl-α-D-lactoside] | – | inhibit
4 | arabinogalactose | inhibited | –
